Results from PubChem BioAssay AID328 (DTP/NCI, 2004).
“And” between values parts separate entries of the source, which are not always exact repeats. Equal entries are not always repeated. Inconclusive results and toxic doses are left out.

Test system: BDF1 mice, P388 leukemia ip, median survival T/C
Experiment: NCI In Vivo Anticancer Drug Screen. Data for tumor model P388 Leukemia (intraperitoneal) in B6D2F1 (BDF1) mice
Conditions: endpoint: median survival time, higher = longer survival
How it was run: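 Compound-treated tumour-bearing mice were compared with vehicle-treated controls. Survival was recorded, and the value is the treated-group measurement divided by the control-group measurement (T/C).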

[1] = dose: 50.0 mg/kg/injection, schedule: Q04DX003 (ip), vehicle: water
[2] = dose: 12.5 mg/kg/injection, schedule: Q01DX009 (ip), vehicle: Klucel (hydroxypropylcellulose) (HPC)
[3] = dose: 25.0 mg/kg/injection, schedule: Q01DX009 (ip), vehicle: Klucel (hydroxypropylcellulose) (HPC)
[4] = dose: 200.0 mg/kg/injection, schedule: Q04DX003 (ip), vehicle: Klucel (hydroxypropylcellulose) (HPC)
[5] = dose: 400.0 mg/kg/injection, schedule: Q04DX003 (ip), vehicle: Klucel (hydroxypropylcellulose) (HPC)
[6] = dose: 100.0 mg/kg/injection, schedule: Q01DX009 (ip), vehicle: Klucel (hydroxypropylcellulose) (HPC)
[7] = dose: 100.0 mg/kg/injection, schedule: Q04DX003 (ip), vehicle: Klucel (hydroxypropylcellulose) (HPC)
[8] = dose: 200.0 mg/kg/injection, schedule: Q01DX009 (ip), vehicle: Klucel (hydroxypropylcellulose) (HPC)
[9] = dose: 400.0 mg/kg/injection, schedule: Q01DX009 (ip), vehicle: Klucel (hydroxypropylcellulose) (HPC)

CC(=O)n1ncc2ccc(N)cc21
T/C (dose: 25.0 mg/kg/injection, schedule: Q01DX009 (ip), vehicle: water): 94 % of control | T/C (dose: 50.0 mg/kg/injection, schedule: Q01DX009 (ip), vehicle: water): 96 % of control | T/C [1]: 103 % of control | T/C (dose: 100.0 mg/kg/injection, schedule: Q01DX009 (ip), vehicle: water): 102 % of control | T/C (dose: 100.0 mg/kg/injection, schedule: Q04DX003 (ip), vehicle: water): 103 % of control | T/C (dose: 200.0 mg/kg/injection, schedule: Q01DX009 (ip), vehicle: water): 99 % of control | T/C (dose: 200.0 mg/kg/injection, schedule: Q04DX003 (ip), vehicle: water): 101 % of control | T/C (dose: 400.0 mg/kg/injection, schedule: Q04DX003 (ip), vehicle: water): 120 % of control

IP(c1ccccc1)(c1ccccc1)(c1ccccc1)N1C2CCCCC21 (configuration not stated)
T/C (dose: 0.07 mg/kg/injection, schedule: Q01DX009 (ip), vehicle: saline): 104 % of control and 113 % of control | T/C (dose: 0.15 mg/kg/injection, schedule: Q01DX009 (ip), vehicle: saline): 150 % of control and 156 % of control | T/C (dose: 0.23 mg/kg/injection, schedule: Q04DX003 (ip), vehicle: saline): 109 % of control | T/C (dose: 0.31 mg/kg/injection, schedule: Q01DX009 (ip), vehicle: saline): 150 % of control | T/C (dose: 0.46 mg/kg/injection, schedule: Q04DX003 (ip), vehicle: saline): 118 % of control | T/C (dose: 0.6 mg/kg/injection, schedule: Q01DX009 (ip), vehicle: saline): 166 % of control | T/C (dose: 0.62 mg/kg/injection, schedule: Q04DX003 (ip), vehicle: saline): 113 % of control | T/C (dose: 0.93 mg/kg/injection, schedule: Q04DX003 (ip), vehicle: saline): 118 % of control | T/C (dose: 1.2 mg/kg/injection, schedule: Q01DX009 (ip), vehicle: saline): 156 % of control

CCOc1cccc2c1C(=O)c1c(O)c3c(c(O)c1C2=O)C[C@@](O)(C(C)=O)C[C@@H]3OC1CC(N)C(O)C(C)O1 (some centres not stated)
T/C (dose: 6.25 mg/kg/injection, schedule: Q04DX003 (ip), vehicle: water): 123 % of control | T/C [1]: 108 % of control

CCN(CC)CCNc1ncnc2c1cnn2-c1ccc(Cl)cc1
T/C (dose: 100.0 mg/kg/injection, schedule: Q04DX003 (ip), vehicle: saline with Tween-80): 109 % of control | T/C (dose: 200.0 mg/kg/injection, schedule: Q04DX003 (ip), vehicle: saline with Tween-80): 109 % of control

S=C1SCN(Cc2cccs2)CN1Cc1cccs1
T/C (dose: 50.0 mg/kg/injection, schedule: Q01DX005 (ip), vehicle: saline with Tween-80): 99 % of control | T/C (dose: 100.0 mg/kg/injection, schedule: Q01DX005 (ip), vehicle: saline with Tween-80): 87 % of control | T/C (dose: 200.0 mg/kg/injection, schedule: Q01DX005 (ip), vehicle: saline with Tween-80): 95 % of control

N#Cc1ccc(/C=N/NC(N)=S)s1
T/C (dose: 50.0 mg/kg/injection, schedule: Q01DX009 (ip), vehicle: saline with Tween-80): 97 % of control | T/C (dose: 100.0 mg/kg/injection, schedule: Q01DX009 (ip), vehicle: saline with Tween-80): 102 % of control | T/C (dose: 200.0 mg/kg/injection, schedule: Q01DX009 (ip), vehicle: saline with Tween-80): 97 % of control

CCOC(=O)C1C(=O)C(CN(CCCl)CCCl)C(=O)C(C(=O)OCC)C1c1ccc(O)cc1 (configuration not stated)
T/C (dose: 0.75 mg/kg/injection, schedule: Q01DX009 (ip), vehicle: Klucel (hydroxypropylcellulose) (HPC)): 180 % of control | T/C (dose: 1.5 mg/kg/injection, schedule: Q01DX009 (ip), vehicle: Klucel (hydroxypropylcellulose) (HPC)): 190 % of control | T/C (dose: 3.0 mg/kg/injection, schedule: Q01DX009 (ip), vehicle: Klucel (hydroxypropylcellulose) (HPC)): 183 % of control | T/C (dose: 3.13 mg/kg/injection, schedule: Q04DX003 (ip), vehicle: saline with Tween-80): 153 % of control | T/C (dose: 6.0 mg/kg/injection, schedule: Q01DX009 (ip), vehicle: Klucel (hydroxypropylcellulose) (HPC)): 266 % of control | T/C (dose: 6.25 mg/kg/injection, schedule: Q01DX009 (ip), vehicle: Klucel (hydroxypropylcellulose) (HPC)): 185 % of control | T/C (dose: 6.25 mg/kg/injection, schedule: Q04DX003 (ip), vehicle: Klucel (hydroxypropylcellulose) (HPC)): 180 % of control | T/C (dose: 6.25 mg/kg/injection, schedule: Q04DX003 (ip), vehicle: saline with Tween-80): 160 % of control | T/C (dose: 11.0 mg/kg/injection, schedule: Q01DX009 (ip), vehicle: Klucel (hydroxypropylcellulose) (HPC)): 209 % of control | T/C [2]: 269 % of control | T/C (dose: 12.5 mg/kg/injection, schedule: Q04DX003 (ip), vehicle: Klucel (hydroxypropylcellulose) (HPC)): 195 % of control | T/C (dose: 12.5 mg/kg/injection, schedule: Q04DX003 (ip), vehicle: saline with Tween-80): 225 % of control | T/C (dose: 16.5 mg/kg/injection, schedule: Q01DX009 (ip), vehicle: Klucel (hydroxypropylcellulose) (HPC)): 232 % of control | T/C (dose: 20.0 mg/kg/injection, schedule: Q04DX003 (ip), vehicle: Klucel (hydroxypropylcellulose) (HPC)): 105 % of control | T/C [3]: 243 % of control and 95 % of control and 190 % of control | T/C (dose: 25.0 mg/kg/injection, schedule: Q04DX003 (ip), vehicle: Klucel (hydroxypropylcellulose) (HPC)): 182 % of control | T/C (dose: 25.0 mg/kg/injection, schedule: Q04DX003 (ip), vehicle: saline with Tween-80): 260 % of control and 267 % of control | T/C (dose: 37.5 mg/kg/injection, schedule: Q01DX009 (ip), vehicle: Klucel (hydroxypropylcellulose) (HPC)): 103 % of control | T/C (dose: 50.0 mg/kg/injection, schedule: Q04DX003 (ip), vehicle: Klucel (hydroxypropylcellulose) (HPC)): 89 % of control | T/C (dose: 80.0 mg/kg/injection, schedule: Q04DX003 (ip), vehicle: Klucel (hydroxypropylcellulose) (HPC)): 155 % of control | T/C (dose: 118.0 mg/kg/injection, schedule: Q04DX003 (ip), vehicle: Klucel (hydroxypropylcellulose) (HPC)): 160 % of control | T/C (dose: 177.0 mg/kg/injection, schedule: Q04DX003 (ip), vehicle: Klucel (hydroxypropylcellulose) (HPC)): 175 % of control | T/C [4]: 159 % of control | T/C (dose: 266.0 mg/kg/injection, schedule: Q04DX003 (ip), vehicle: Klucel (hydroxypropylcellulose) (HPC)): 170 % of control | T/C [5]: 180 % of control and 195 % of control

O=c1[nH]c(-c2ccccc2)c(-c2ccccc2)[nH]1
T/C [2]: 95 % of control | T/C [3]: 86 % of control | T/C (dose: 50.0 mg/kg/injection, schedule: Q01DX009 (ip), vehicle: Klucel (hydroxypropylcellulose) (HPC)): 86 % of control

CC(O)(C(=O)O)c1ccccc1 (configuration not stated) (tested in a mixture with another compound)
T/C (dose: 100.0 mg/kg/injection, schedule: Q01DX001 (ip), vehicle: saline): 103 % of control | T/C (dose: 100.0 mg/kg/injection, schedule: Q04DX003 (ip), vehicle: saline): 100 % of control | T/C (dose: 200.0 mg/kg/injection, schedule: Q01DX001 (ip), vehicle: saline): 107 % of control | T/C (dose: 200.0 mg/kg/injection, schedule: Q04DX003 (ip), vehicle: saline): 113 % of control | T/C (dose: 400.0 mg/kg/injection, schedule: Q01DX001 (ip), vehicle: saline): 107 % of control | T/C (dose: 400.0 mg/kg/injection, schedule: Q04DX003 (ip), vehicle: saline): 95 % of control

O=c1ccccn1C/C(=N\O)c1ccccc1
T/C [6]: 95 % of control | T/C [7]: 100 % of control | T/C [8]: 95 % of control | T/C [4]: 95 % of control | T/C [9]: 100 % of control | T/C [5]: 100 % of control

CCCCC(/C=C1/CCCCC1=O)CC (configuration not stated)
T/C [6]: 95 % of control | T/C [7]: 104 % of control | T/C [8]: 87 % of control | T/C [4]: 104 % of control | T/C [9]: 91 % of control | T/C [5]: 113 % of control

[NH-]CC([NH-])=O.[NH-]CC([NH-])=O.[Ni]
T/C (dose: 5.0 mg/kg/injection, schedule: Q01DX009 (ip), vehicle: water): 105 % of control | T/C (dose: 10.0 mg/kg/injection, schedule: Q01DX009 (ip), vehicle: water): 105 % of control | T/C (dose: 12.5 mg/kg/injection, schedule: Q04DX003 (ip), vehicle: water): 95 % of control | T/C (dose: 25.0 mg/kg/injection, schedule: Q04DX003 (ip), vehicle: water): 109 % of control
